Where two headings read alike, the source gives them in different places. Where a SMILES comes first, the peptide text is derived from it. The star is where a group is joined. Palmitoyl = CCCCCCCCCCCCCCCC(=O)*
Legend:
PAR1 [1] = target: T1, PAR1 (Homo sapiens, UniProt P25116); details: cited from earlier work
T1 construct: delivered intravenously in 100 patients with coronary artery disease (CAD) and acute coronary syndrome (ACS) undergoing cardiac catheterization; endogenous in cells; host or cells: patients of the TRIP-PCI trial (platelets ex vivo; whole body in vivo)
T1 sequence (P25116 22-425): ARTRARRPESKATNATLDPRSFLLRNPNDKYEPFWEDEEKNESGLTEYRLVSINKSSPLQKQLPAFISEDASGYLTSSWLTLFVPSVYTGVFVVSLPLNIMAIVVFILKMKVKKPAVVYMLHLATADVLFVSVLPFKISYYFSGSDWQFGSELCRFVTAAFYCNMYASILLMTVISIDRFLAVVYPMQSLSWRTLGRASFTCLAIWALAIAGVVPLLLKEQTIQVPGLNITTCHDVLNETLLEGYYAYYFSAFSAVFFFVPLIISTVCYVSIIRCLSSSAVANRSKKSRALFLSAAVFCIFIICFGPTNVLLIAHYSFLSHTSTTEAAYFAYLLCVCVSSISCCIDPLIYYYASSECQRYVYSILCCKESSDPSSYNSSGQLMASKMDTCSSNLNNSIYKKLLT

PAR1 [2] = target: T2, PAR1 (Mus musculus, UniProt P30558); experiment: thoracic aortic constriction (TAC) LV pressure overload model of HFrEF in mice; assay type: in vivo
T2 construct: endogenous in cells; host or cells: male C57BL/6N mice, in vivo
T2 sequence (P30558 22-430): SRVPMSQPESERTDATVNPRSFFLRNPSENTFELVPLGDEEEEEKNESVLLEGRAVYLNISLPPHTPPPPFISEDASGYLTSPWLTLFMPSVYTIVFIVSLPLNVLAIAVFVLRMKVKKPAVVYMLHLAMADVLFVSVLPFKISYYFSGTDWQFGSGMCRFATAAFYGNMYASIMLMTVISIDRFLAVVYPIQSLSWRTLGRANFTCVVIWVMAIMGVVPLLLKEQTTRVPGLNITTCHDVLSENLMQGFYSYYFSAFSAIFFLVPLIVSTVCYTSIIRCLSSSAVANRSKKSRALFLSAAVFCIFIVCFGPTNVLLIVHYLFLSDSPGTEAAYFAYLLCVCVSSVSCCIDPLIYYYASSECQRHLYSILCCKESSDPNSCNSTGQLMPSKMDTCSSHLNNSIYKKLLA
Experimental: Male C57BL/6N mice were treated daily for 7 weeks with vehicle or 10 mg/kg PZ-128 sc following 25G transaortic constriction (TAC) or sham surgery (Richards et al., Scientific Reports 9(1):5844, 2019) (n=5-7). (FIG. 4A) Photomicrographs of interstitial fibrosis in cardiac sections stained with sirius red from Sham and TAC animals treated with Veh or PZ-128. (FIG. 4B) Interstitial collagen area from animals in A was quantified along with (FIG. 4C) Col1a1 expression by Q-PCR. (FIGS. 4D-4E) LV fractional shortening and ejection fraction were quantified by ECHO. (FIG. 4F) The outline of cardiomyocytes was identified by wheat germ agglutinin (WGA-green) staining with (FIG. 4G) mean myocyte area digitally quantified. (FIG. 4H) Mean weight (mg) of LV normalized to tibia length (mm).
(FIG. 5A) Photomicrographs of CD11 b+monocytes/macrophages and CD4+ T cells in Sham vs TAC in mice treated with vehicle or PZ-128 as in FIGS. 4A-4H, with CD11 b staining area quantified in FIG. 5B and T cells quantified in FIG. 5C.
TAC vs Sham mice were treated for 7 weeks with vehicle or PZ-128, and cardiac fibrosis and LV hypertrophy indices measured. […] This may indicate that unlike upstream thrombin (Dong et al., Thromb. Res. 159:58-64, 2017) or factor Xa (Yurista et al., Cardiovasc. Drugs Ther. 35(5):953-963, 2021) blockade, inhibition of PAR1 may effectively suppress cardiac hypertrophy by reducing the total ventricular mass, potentially by reducing MMP1-PAR1 driven fibrosis/remodeling and cardiac fibroblast expansion.
To obtain additional data to support PAR1 as a potentially important contributor to HF pathogenesis via inflammation, we investigated the effect of PZ-128 on monocyte/macrophage and CD4+ T cells in the 7-week TAC LV pressure overload model. As shown in FIGS. 5A-5B, there was a marked amount of CD11 b+monocytes/macrophages in the cardiac tissue from the TAC animals which was suppressed by nearly 90% by PZ-128 treatment.

[3] = 7 weeks, Q-PCR relative to GAPDH mRNA, preliminary

**Q.** What does the source list for CCCCCCCCCCCCCCCC(=O)N[C@@H](CCCCN)C(=O)N[C@@H](CCCCN)C(=O)N[C@@H](CO)C(=O)N[C@@H](CCCNC(=N)N)C(=O)N[C@@H](C)C(=O)N[C@@H](CC(C)C)C(=O)N[C@@H](Cc1ccccc1)C(N)=O [PZ-128, Palmitate-KKSRALF-NH2] (Palmitoyl-KKSRALF-NH2)?
**A.** overall safety and tolerability (PAR1 [1]; 0.3 and 0.5 mg/kg, single 2-h intravenous infusion, 100 patients): safe and well-tolerated; hazard ratio of a MACE/myonecrosis event versus placebo (PAR1 [1]; PZ-128 treated groups, nonsignificant decrease): 0.81; major adverse coronary events (MACE) (PAR1 [1]; at 30 days, combined PZ-128 dose groups (placebo 6%, P=0.13)): 0%; major adverse coronary events (MACE) (PAR1 [1]; at 90 days, combined PZ-128 dose groups (placebo 6%, P=0.29)): 2%; MACE and myocardial injury within 30 days (PAR1 [1]; subgroup with elevated baseline cardiac troponin I (placebo 83%, P=0.02)): 31%; primary safety endpoint: bleeding vs vehicle (PAR1 [1]; up to 30 days posttreatment): not significantly different; LV mass (adjusted for tibia length) (PAR1 [2]; 10 mg/kg sc daily for 7 weeks): highly significant protective effect; TAC-induced loss in ejection fraction by ECHO (PAR1 [2]; 10 mg/kg sc daily for 7 weeks): significant protective effects; TAC-induced loss in fractional shortening by ECHO (PAR1 [2]; 10 mg/kg sc daily for 7 weeks): significant protective effects; interstitial collagen (cardiac fibrosis) relative to vehicle (PAR1 [2]; 10 mg/kg sc daily for 7 weeks): dramatic anti-fibrotic effects; suppression of the increase in mean myocyte cross-sectional area (PAR1 [2]; 10 mg/kg sc daily for 7 weeks): no effect; Col1A1 expression relative to vehicle (PAR1 [2]; 10 mg/kg sc daily for 7 weeks, Q-PCR): dramatic anti-fibrotic effects; suppression of CD11b+ monocytes/macrophages in cardiac tissue (PAR1 [2]; 7 weeks): ~90%; CTGF gene expression (PAR1 [2]; [3]): reduces expression; Cyr61 gene expression (PAR1 [2]; [3]): reduces expression; IL-6 gene expression (PAR1 [2]; [3]): reduces expression; TGFβ gene expression (PAR1 [2]; [3]): reduces expression; TNFα gene expression (PAR1 [2]; [3]): reduces expression; T cell infiltration (CD4+) (PAR1 [2]; 7 weeks, vehicle mice significant increases): non-significant increases
